The values below come from ChEMBL document CHEMBL1641527, “Design and synthesis of aryl ether and sulfone hydroxamic acids as potent histone deacetylase (HDAC) inhibitors” (Bioorg Med Chem Lett, 2011).

A short description of the experiment: Inhibition of HDAC by [3H]acetate-radiolabelled peptide substrate assay with scintillation counting.

For orientation: IC50 means the midpoint of a concentration-inhibition curve. As to `CC(/C=C/C(=O)O)=C\C(C)Oc1cccc(Cl)c1` (stereo not drawn), the IC50 is greater than 1000 nM.

Take `CC(/C=C/C(=O)O)=C\C(C)Oc1ccc(Br)cc1Br` (stereo not drawn): the IC50 is greater than 1000 nM.

As for `CC(/C=C/C(=O)O)=C\COc1cccc(-c2ccccc2)c1`, the IC50 was greater than 1000 nM.

`CC(/C=C/C(=O)O)=C\C(C)Oc1cccc(-c2ccccc2)c1` (stereo not drawn): the IC50 is greater than 1000 nM.

On to `CC(/C=C/C(=O)O)=C\C(C)Oc1cccc(Cc2ccccc2)c1` (stereo not drawn), for which the IC50 is greater than 50000 nM.

Take `COc1ccc(OC/C=C(C)/C=C/C(=O)O)cc1`: the IC50 was greater than 1000 nM.

As to `CC(/C=C/C(=O)O)=C\C(C)Oc1cccc(C(F)(F)F)c1` (stereo not drawn), the IC50 is greater than 50000 nM.

`CCCCCCOc1ccc(OC(C)/C=C(C)/C=C/C(=O)O)cc1` (stereo not drawn) showed an IC50 greater than 1000 nM.

For the molecule `CC(/C=C/C(=O)O)=C\COc1cccc2c1CCCC2`, the IC50 was greater than 1000 nM.

With `CC(/C=C/C(=O)O)=C\C(C)Oc1cccc2c1CCCC2` (stereo not drawn), the IC50 was greater than 50000 nM.

`CC(/C=C/C(=O)O)=C\COc1ccc(C(C)C)cc1` came in with an IC50 greater than 1000 nM.

`CC(/C=C/C(=O)O)=C\C(C)Oc1ccc(C(C)C)cc1` (stereo not drawn): the IC50 was greater than 50000 nM.

On to `CC(/C=C/C(=O)NO)=C\COc1cccc(Cl)c1`, for which the IC50 was found to be 188 nM.

`CC(/C=C/C(=O)NO)=C\COc1ccc(Br)cc1Br`: the half-inhibitory concentration (IC50) came out at 890 nM.

The molecule `CC(/C=C/C(=O)NO)=C\COc1cccc(-c2ccccc2)c1` had an IC50 of 41 nM.

In turn, `CC(/C=C/C(=O)NO)=C\C(C)Oc1cccc(-c2ccccc2)c1` (stereo not drawn) returned an IC50 of 55 nM.

`CC(/C=C/C(=O)NO)=C\COc1cccc(Cc2ccccc2)c1` displayed an IC50 of 1200 nM.

Molecule `COc1ccc(OC/C=C(C)/C=C/C(=O)NO)cc1` yielded an IC50 of 68 nM.

With `CC(/C=C/C(=O)NO)=C\COc1cccc(C(F)(F)F)c1`, inhibition was half-maximal at 18 nM (IC50).

For `COc1ccc2ccc(OC/C=C(C)/C=C/C(=O)NO)cc2c1`, the IC50 worked out at 20 nM.

Take `CCCCCCOc1ccc(OC(C)/C=C(C)/C=C/C(=O)NO)cc1` (stereo not drawn): the midpoint of inhibition, the IC50, lay at 1100 nM.

As to `CC(/C=C/C(=O)NO)=C\C(C)Oc1ccc(-c2ccc(Br)cc2)cc1` (stereo not drawn), the IC50 was 162 nM.

For the molecule `CC(=O)c1ccc(OC(C)/C=C(C)/C=C/C(=O)NO)cc1` (stereo not drawn), the IC50 was greater than 50000 nM.

Regarding `CC(/C=C/C(=O)O)=C\C(C)S(=O)(=O)c1ccc(Br)cc1` (stereo not drawn), the IC50 was greater than 1000 nM.

The molecule `CC(/C=C/C(=O)O)=C\C(C)S(=O)(=O)c1ccc(Cl)cc1` (stereo not drawn) returned an IC50 greater than 1000 nM.

As for `CC(/C=C/C(=O)O)=C\C(C)S(=O)(=O)c1ccc(F)cc1` (stereo not drawn), the IC50 was greater than 1000 nM.

For `CC(/C=C/C(=O)O)=C\C(C)S(=O)(=O)c1ccc(C)c(C)c1` (stereo not drawn), the IC50 is greater than 1000 nM.

`CC(/C=C/C(=O)O)=C\C(C)S(=O)(=O)c1ccc(C)cc1C` (stereo not drawn) returned an IC50 greater than 1000 nM.

The molecule `CC(/C=C/C(=O)NO)=C\C(C)S(=O)(=O)c1ccc(Br)cc1` (stereo not drawn) gave an IC50 greater than 1000 nM.

Turning to `CC(/C=C/C(=O)NO)=C\C(C)S(=O)(=O)c1ccc(C)cc1` (stereo not drawn), the IC50 is greater than 1000 nM.

The molecule `COc1ccc(S(=O)(=O)C(C)/C=C(C)/C=C/C(=O)NO)cc1` (stereo not drawn) gave an IC50 greater than 1000 nM.

For the molecule `CC(=O)Nc1ccc(S(=O)(=O)C(C)/C=C(C)/C=C/C(=O)NO)cc1` (stereo not drawn), the IC50 was greater than 1000 nM.

In the case of `COc1cccc(S(=O)(=O)C(C)/C=C(C)/C=C/C(=O)NO)c1` (stereo not drawn), the IC50 is greater than 1000 nM.

In turn, `CC(/C=C/C(=O)NO)=C\C(C)S(=O)(=O)c1ccc(Cl)c(Cl)c1` (stereo not drawn) came in with an IC50 greater than 1000 nM.

As for `CC(/C=C/C(=O)NO)=C\C(C)S(=O)(=O)c1cnc2cc(C)ccc2c1` (stereo not drawn), the IC50 was greater than 1000 nM.

As to `CC(/C=C/C(=O)NO)=C\C(C)S(=O)(=O)c1cn(C)cn1` (stereo not drawn), the IC50 was greater than 1000 nM.

In turn, `CC(/C=C/C(=O)NO)=C\C(C)S(=O)(=O)c1nc(C)cc(C)n1` (stereo not drawn) yielded an IC50 greater than 1000 nM.

In turn, `CC(/C=C/C(=O)NO)=C\[C@@H](C)C(=O)c1ccc(N(C)C)cc1` [TRICHOSTATIN] displayed an IC50 of 3 nM.
